Tests used:
Format in all cases: in vivo
[1] = tested on: ivy-leaved morning glory (Ipomoea hederacea); assay: Test G Post-Emergence Protocol; details: Ipomoea, post-emergence, 312 h, read-out: Morningglory, Ivy-leaved damage rating; for pest or weed control at 15.625 g/ha: 15.625 g ai/ha, evaluated after 13 days (100=total damage to plant; 0=no damage to plant); for pest or weed control at 62.5 g/ha: 62.5 g ai/ha; for pest or weed control at 62.5 g/ha / pest or weed control at 250 g/ha: evaluated after 13 days, 100=total damage to plant, 0=no damage to plant; for pest or weed control at 250 g/ha: 250 g ai/ha
How it was run: (§1)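 A glasshouse post-emergence test: 8-day-old plants sprayed at 15.625, 62.5 or 250 g/ha, then grown at 24/16 °C day/night with 14 h light and 65% humidity. Damage rated 13 days later, 0–100.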

[2] = tested on: redroot pigweed (Amaranthus retroflexus); assay: Test G Post-Emergence Protocol; details: Amaranthus retroflexus, post-emergence, 312 h, read-out: Pigweed, Redroot damage rating; for pest or weed control at 15.625 g/ha: 15.625 g ai/ha, evaluated after 13 days (100=total damage to plant; 0=no damage to plant); for pest or weed control at 62.5 g/ha: 62.5 g ai/ha; for pest or weed control at 62.5 g/ha / pest or weed control at 250 g/ha: evaluated after 13 days, 100=total damage to plant, 0=no damage to plant; for pest or weed control at 250 g/ha: 250 g ai/ha
How it was run: as §1

[3] = tested on: velvetleaf (Abutilon theophrasti); assay: Test G Post-Emergence Protocol; details: Abutilon theophrasti, post-emergence, 312 h, read-out: Velvetleaf damage rating; for pest or weed control at 15.625 g/ha: 15.625 g ai/ha, evaluated after 13 days (100=total damage to plant; 0=no damage to plant); for pest or weed control at 62.5 g/ha: 62.5 g ai/ha; for pest or weed control at 62.5 g/ha / pest or weed control at 250 g/ha: evaluated after 13 days, 100=total damage to plant, 0=no damage to plant; for pest or weed control at 250 g/ha: 250 g ai/ha
How it was run: as §1

corn (Zea mays) [4] = assay: Test G Post-Emergence Protocol; details: Zea mays, post-emergence, 312 h, read-out: Corn damage rating; for plant injury at 15.625 g/ha: 15.625 g ai/ha, evaluated after 13 days (100=total damage to plant; 0=no damage to plant); for plant injury at 62.5 g/ha: 62.5 g ai/ha; for plant injury at 62.5 g/ha / plant injury at 250 g/ha: evaluated after 13 days, 100=total damage to plant, 0=no damage to plant; for plant injury at 250 g/ha: 250 g ai/ha
How it was run: as §1

[5] = tested on: barnyardgrass (Echinochloa crus-galli); assay: Test G Post-Emergence Protocol; details: Echinochloa crus-galli, post-emergence, 312 h, read-out: Barnyardgrass damage rating; for pest or weed control at 15.625 g/ha: 15.625 g ai/ha, evaluated after 13 days (100=total damage to plant; 0=no damage to plant); for pest or weed control at 62.5 g/ha: 62.5 g ai/ha; for pest or weed control at 62.5 g/ha / pest or weed control at 250 g/ha: evaluated after 13 days, 100=total damage to plant, 0=no damage to plant; for pest or weed control at 250 g/ha: 250 g ai/ha
How it was run: as §1

[6] = tested on: giant foxtail (Setaria faberi); assay: Test G Post-Emergence Protocol; details: Setaria faberi, post-emergence, 312 h, read-out: Foxtail, Giant damage rating; for pest or weed control at 15.625 g/ha: 15.625 g ai/ha, evaluated after 13 days (100=total damage to plant; 0=no damage to plant); for pest or weed control at 62.5 g/ha: 62.5 g ai/ha; for pest or weed control at 62.5 g/ha / pest or weed control at 250 g/ha: evaluated after 13 days, 100=total damage to plant, 0=no damage to plant; for pest or weed control at 250 g/ha: 250 g ai/ha
How it was run: as §1

[7] = tested on: ivy-leaved morning glory (Ipomoea hederacea); assay: Test G Pre-Emergence Protocol; details: Ipomoea, pre-emergence, 312 h, evaluated after 13 days; for pest or weed control at 15.625 g/ha: 15.625 g ai/ha; for pest or weed control at 15.625 g/ha / pest or weed control at 250 g/ha: read-out: Morningglory, Ivy-leaved damage rating (100=total damage to plant; 0=no damage to plant); for pest or weed control at 62.5 g/ha: 62.5 g ai/ha, 100=total damage to plant, 0=no damage to plant, read-out: Morningglory, Ivy-leaved damage rating; for pest or weed control at 250 g/ha: 250 g ai/ha
How it was run: (§2)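 Test compound in 0.5% Tween 20 acetone/water (50:50) was applied at three rates (15.625, 62.5, 250 g/ha) to soil sown one day earlier. After 13 days plants were scored for injury, where 0 means unaffected and 100 means completely damaged.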

[8] = tested on: redroot pigweed (Amaranthus retroflexus); assay: Test G Pre-Emergence Protocol; details: Amaranthus retroflexus, pre-emergence, 312 h, evaluated after 13 days; for pest or weed control at 15.625 g/ha: 15.625 g ai/ha; for pest or weed control at 15.625 g/ha / pest or weed control at 250 g/ha: read-out: Pigweed, Redroot damage rating (100=total damage to plant; 0=no damage to plant); for pest or weed control at 62.5 g/ha: 62.5 g ai/ha, 100=total damage to plant, 0=no damage to plant, read-out: Pigweed, Redroot damage rating; for pest or weed control at 250 g/ha: 250 g ai/ha
How it was run: as §2

[9] = tested on: velvetleaf (Abutilon theophrasti); assay: Test G Pre-Emergence Protocol; details: Abutilon theophrasti, pre-emergence, 312 h, evaluated after 13 days; for pest or weed control at 15.625 g/ha: 15.625 g ai/ha; for pest or weed control at 15.625 g/ha / pest or weed control at 250 g/ha: read-out: Velvetleaf damage rating (100=total damage to plant; 0=no damage to plant); for pest or weed control at 62.5 g/ha: 62.5 g ai/ha, 100=total damage to plant, 0=no damage to plant, read-out: Velvetleaf damage rating; for pest or weed control at 250 g/ha: 250 g ai/ha
How it was run: as §2

corn (Zea mays) [10] = assay: Test G Pre-Emergence Protocol; details: Zea mays, pre-emergence, 312 h, evaluated after 13 days; for plant injury at 15.625 g/ha: 15.625 g ai/ha; for plant injury at 15.625 g/ha / plant injury at 250 g/ha: read-out: Corn damage rating (100=total damage to plant; 0=no damage to plant); for plant injury at 62.5 g/ha: 62.5 g ai/ha, 100=total damage to plant, 0=no damage to plant, read-out: Corn damage rating; for plant injury at 250 g/ha: 250 g ai/ha
How it was run: as §2

[11] = tested on: barnyardgrass (Echinochloa crus-galli); assay: Test G Pre-Emergence Protocol; details: Echinochloa crus-galli, pre-emergence, 312 h, evaluated after 13 days; for pest or weed control at 15.625 g/ha: 15.625 g ai/ha; for pest or weed control at 15.625 g/ha / pest or weed control at 250 g/ha: read-out: Barnyardgrass damage rating (100=total damage to plant; 0=no damage to plant); for pest or weed control at 62.5 g/ha: 62.5 g ai/ha, 100=total damage to plant, 0=no damage to plant, read-out: Barnyardgrass damage rating; for pest or weed control at 250 g/ha: 250 g ai/ha
How it was run: as §2

[12] = tested on: giant foxtail (Setaria faberi); assay: Test G Pre-Emergence Protocol; details: Setaria faberi, pre-emergence, 312 h, evaluated after 13 days; for pest or weed control at 15.625 g/ha: 15.625 g ai/ha; for pest or weed control at 15.625 g/ha / pest or weed control at 250 g/ha: read-out: Foxtail, Giant damage rating (100=total damage to plant; 0=no damage to plant); for pest or weed control at 62.5 g/ha: 62.5 g ai/ha, 100=total damage to plant, 0=no damage to plant, read-out: Foxtail, Giant damage rating; for pest or weed control at 250 g/ha: 250 g ai/ha
How it was run: as §2

`CN1C[C@H](c2ccc(C(F)(F)F)cc2)[C@@H](C(=O)Nc2cnccc2S(C)(=O)=O)C1=O` (racemic) [Compound 1746] gave a pest or weed control at 15.625 g/ha [1] of 0%, a pest or weed control at 62.5 g/ha [1] of 10% and a pest or weed control at 250 g/ha [1] of 60%. It also gave a pest or weed control at 15.625 g/ha [2] of 0%, a pest or weed control at 62.5 g/ha [2] of 20% and a pest or weed control at 250 g/ha [2] of 20%. The pest or weed control at 15.625 g/ha [3] was 0%, the pest or weed control at 62.5 g/ha [3] was 0% and the pest or weed control at 250 g/ha [3] was 10%. It also gave a plant injury at 15.625 g/ha (corn (Zea mays) [4]) of 0%, a plant injury at 62.5 g/ha (corn (Zea mays) [4]) of 0% and a plant injury at 250 g/ha (corn (Zea mays) [4]) of 10%. For the same compound, the pest or weed control at 15.625 g/ha [5] was 0%, the pest or weed control at 62.5 g/ha [5] was 0% and the pest or weed control at 250 g/ha [5] was 40%. It also gave a pest or weed control at 15.625 g/ha [6] of 0%, a pest or weed control at 62.5 g/ha [6] of 10% and a pest or weed control at 250 g/ha [6] of 70%. For the same compound, the pest or weed control at 15.625 g/ha [7] was 0%, the pest or weed control at 62.5 g/ha [7] was 0% and the pest or weed control at 250 g/ha [7] was 10%. The pest or weed control at 15.625 g/ha [8] was 0%, the pest or weed control at 62.5 g/ha [8] was 0% and the pest or weed control at 250 g/ha [8] was 20%. The pest or weed control at 15.625 g/ha [9] was 0%, the pest or weed control at 62.5 g/ha [9] was 0% and the pest or weed control at 250 g/ha [9] was 10%. The plant injury at 15.625 g/ha (corn (Zea mays) [10]) was 0%, the plant injury at 62.5 g/ha (corn (Zea mays) [10]) was 0% and the plant injury at 250 g/ha (corn (Zea mays) [10]) was 0%. For the same compound, the pest or weed control at 15.625 g/ha [11] was 0%, the pest or weed control at 62.5 g/ha [11] was 0% and the pest or weed control at 250 g/ha [11] was 50%. The pest or weed control at 15.625 g/ha [12] was 0%, the pest or weed control at 62.5 g/ha [12] was 20% and the pest or weed control at 250 g/ha [12] was 70%.
`CN1C[C@H](c2ccc(C(F)(F)F)cc2)[C@@H](C(=O)Nc2cncnc2Cl)C1=O` (racemic) [Compound 1748] showed a pest or weed control at 15.625 g/ha [1] of 0%, a pest or weed control at 62.5 g/ha [1] of 0% and a pest or weed control at 250 g/ha [1] of 0%. The pest or weed control at 15.625 g/ha [2] was 0%, the pest or weed control at 62.5 g/ha [2] was 0% and the pest or weed control at 250 g/ha [2] was 0%. For the same compound, the pest or weed control at 15.625 g/ha [3] was 0%, the pest or weed control at 62.5 g/ha [3] was 0% and the pest or weed control at 250 g/ha [3] was 0%. For the same compound, the plant injury at 15.625 g/ha (corn (Zea mays) [4]) was 0%, the plant injury at 62.5 g/ha (corn (Zea mays) [4]) was 0% and the plant injury at 250 g/ha (corn (Zea mays) [4]) was 0%. The pest or weed control at 15.625 g/ha [5] was 0%, the pest or weed control at 62.5 g/ha [5] was 0% and the pest or weed control at 250 g/ha [5] was 0%. It also gave a pest or weed control at 15.625 g/ha [6] of 0%, a pest or weed control at 62.5 g/ha [6] of 0% and a pest or weed control at 250 g/ha [6] of 0%. For the same compound, the pest or weed control at 15.625 g/ha [7] was 0%, the pest or weed control at 62.5 g/ha [7] was 0% and the pest or weed control at 250 g/ha [7] was 0%. It also gave a pest or weed control at 15.625 g/ha [8] of 0%, a pest or weed control at 62.5 g/ha [8] of 0% and a pest or weed control at 250 g/ha [8] of 0%. The pest or weed control at 15.625 g/ha [9] was 0%, the pest or weed control at 62.5 g/ha [9] was 0% and the pest or weed control at 250 g/ha [9] was 0%. The plant injury at 15.625 g/ha (corn (Zea mays) [10]) was 0%, the plant injury at 62.5 g/ha (corn (Zea mays) [10]) was 0% and the plant injury at 250 g/ha (corn (Zea mays) [10]) was 0%. For the same compound, the pest or weed control at 15.625 g/ha [11] was 0%, the pest or weed control at 62.5 g/ha [11] was 0% and the pest or weed control at 250 g/ha [11] was 0%. For the same compound, the pest or weed control at 15.625 g/ha [12] was 0%, the pest or weed control at 62.5 g/ha [12] was 0% and the pest or weed control at 250 g/ha [12] was 0%.

— US12077503B2, “Substituted cyclic amides and their use as herbicides” (FMC CORPORATION, priority 2015, dated 2024)
